Data as given in the supplement of paper PMC10307832.

Tests used:
Assay in all cases: relative viability (nuclei count vs DMSO), 5 days (fraction); higher = more cells survive
Sulindac = compound: CC1=C(CC(=O)O)c2cc(F)ccc2/C1=C\c1ccc([S+](C)[O-])cc1 [Sulindac]
Outline: (§1)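 Lung cancer cell lines in 1536-well plates were kept overnight at 37 °C, then pinned with five library-drug doses (not always all listed) spaced by √10 on vehicle-anchored plates. After 5 days without medium change, cells were fixed, permeabilised and Hoechst-stained in one step, imaged at 4×, and nuclei were counted with MetaXpress. Viability is treated-well nuclei divided by vehicle-well nuclei, taken as the median over plates. Plates passed only with control CV below 25% and at least one doubling.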

5-Fluorouracil = compound: O=c1[nH]cc(F)c(=O)[nH]1 [5-Fluorouracil]
Outline: as §1

Staurosporine = compound: CN[C@@H]1C[C@H]2O[C@@](C)([C@@H]1OC)n1c3ccccc3c3c4c(c5c6ccccc6n2c5c31)C(=O)NC4 [Staurosporine]
Outline: as §1

Sulindac + Alpelisib = compound: CC1=C(CC(=O)O)c2cc(F)ccc2/C1=C\c1ccc([S+](C)[O-])cc1 [Sulindac] + Cc1nc(NC(=O)N2CCC[C@H]2C(N)=O)sc1-c1ccnc(C(C)(C)C(F)(F)F)c1 [Alpelisib] (partner 2 µM)
Outline: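 Values are medians from duplicate plates. Each reflects relative viability, defined as the nuclei count of treated wells over that of vehicle wells. Lung cancer cell lines in 1536-well plates were pin-tool dosed one day after seeding with one drug alone or with a fixed anchor-drug dose plus five library-drug doses (not always all listed) in √10 steps, then fixed, stained and imaged at 4× after 5 days.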

| Cell Line | relative viability (Sulindac; 0.08 µM) | relative viability (Sulindac; 0.253 µM) | relative viability (Sulindac; 0.8 µM) | relative viability (Sulindac; 2.53 µM) | relative viability (Sulindac; 8 µM) | relative viability (5-Fluorouracil; 0.02 µM) | relative viability (5-Fluorouracil; 0.2 µM) | relative viability (5-Fluorouracil; 0.6325 µM) | relative viability (5-Fluorouracil; 2 µM) | relative viability (Staurosporine; 0.005 µM) | relative viability (Staurosporine; 0.01581 µM) | relative viability (Staurosporine; 0.05 µM) | relative viability (Staurosporine; 0.1581 µM) | relative viability (Staurosporine; 0.5 µM) | relative viability (Sulindac + Alpelisib; first compound 0.08 µM) | relative viability (Sulindac + Alpelisib; first compound 0.253 µM) | relative viability (Sulindac + Alpelisib; first compound 0.8 µM) | relative viability (Sulindac + Alpelisib; first compound 2.53 µM) | relative viability (Sulindac + Alpelisib; first compound 8 µM) |
| --- | --- | --- | --- | --- | --- | --- | --- | --- | --- | --- | --- | --- | --- | --- | --- | --- | --- | --- | --- |
| NCI-H23 | 1.19 | 0.802 | 0.701 | 0.799 | 1.15 | 1 | 1.13 | 0.601 | 0.387 | 0.704 | 0.139 | 0.367 | 0.164 | 0.117 | 0.763 | 0.78 | 0.636 | 0.658 | 0.859 |
| CAL-12T | 1.05 | 1.09 | 0.864 | 0.946 | 1.12 | 1.08 | 1.03 | 0.659 | 0.448 | 0.34 | 0.223 | – | 0.15 | 0.144 | – | 1.37 | 0.999 | 1.31 | 1.54 |
| A-427 | 1.16 | 1.01 | 0.894 | 1 | 1.15 | 0.939 | 1.03 | 0.9 | 0.575 | 0.799 | 0.236 | 0.337 | 0.146 | 0.139 | 1.03 | 1.08 | 0.534 | 1.09 | 1.11 |
| HARA | 1.1 | 1.01 | 0.899 | 0.979 | 1.11 | 1.03 | 1.33 | 1 | 0.573 | 0.696 | 0.387 | 0.36 | 0.219 | 0.108 | 1.07 | 0.952 | – | 0.918 | 0.785 |
| NCI-H1793 | 0.904 | 0.993 | 0.722 | 0.953 | 0.908 | 0.968 | 1.18 | 0.985 | 0.554 | 0.921 | – | 0.628 | 0.205 | 0.152 | 0.744 | 0.78 | 0.587 | 0.857 | 0.804 |
| NCI-H2023 | 1.39 | 1.05 | 0.744 | 1.01 | 1.13 | 0.849 | 0.227 | 0.133 | 0.0914 | 0.471 | 0.289 | 0.178 | 0.0889 | 0.0533 | 0.683 | 0.572 | 0.472 | 0.591 | 0.587 |
| ABC-1 | 1.07 | 0.871 | 0.981 | 0.838 | 1.3 | 1.04 | 1.03 | 0.847 | 0.788 | 0.42 | 0.283 | 0.262 | 0.172 | 0.129 | 1.25 | 1.02 | 0.811 | 0.861 | 1 |
| IA-LM | 0.835 | 1.07 | – | 1.02 | 1.01 | 0.939 | 0.519 | 0.295 | 0.241 | 0.46 | 0.177 | 0.17 | 0.107 | 0.0831 | 0.825 | 0.955 | – | 0.977 | 1.13 |
| NCI-H441 | 1.34 | 1.25 | 0.78 | 1.09 | 1.37 | 0.887 | 0.866 | 0.591 | 0.385 | 0.889 | 0.275 | 0.266 | 0.18 | 0.129 | 0.724 | 0.713 | 0.642 | 0.888 | 0.917 |
| NCI-H1915 | 1.13 | 1.09 | 0.878 | 0.965 | 1.03 | 0.818 | 0.986 | 0.956 | 0.779 | 0.944 | 0.119 | 0.406 | 0.18 | 0.118 | 1.05 | 1.11 | 0.999 | 1.04 | 1.12 |
| LXF-289 | 1.11 | 1.05 | 0.994 | 1.02 | 1.08 | 0.961 | 0.912 | 0.434 | 0.301 | 1.02 | 0.652 | 0.477 | 0.0851 | 0.127 | 1.1 | 1.05 | 1.02 | 1.13 | 1.06 |
| HCC-827 | 0.99 | 1.09 | 0.97 | 0.957 | 1.09 | 0.855 | 1.01 | 0.667 | 0.469 | 1.03 | 0.701 | 0.723 | 0.48 | 0.36 | 0.985 | 0.979 | 0.839 | 0.943 | 1.11 |
| EMC-BAC-2 | 1.09 | 0.976 | 0.869 | 0.968 | 1.19 | 1.07 | 1.06 | 1.03 | 0.924 | 0.437 | 0.213 | 0.222 | 0.21 | 0.259 | 0.854 | 0.791 | 0.637 | 0.767 | 0.87 |
| NCI-H647 | 1.32 | 1.15 | 0.791 | 0.898 | 1.11 | 1 | 1.11 | 0.842 | 0.623 | 0.546 | 0.317 | 0.295 | 0.0837 | 0.059 | 1.43 | 1.27 | 0.718 | 1.15 | 1.23 |
| NCI-H1792 | 1.19 | 1.08 | – | 1.07 | 1.09 | 0.975 | 0.851 | 0.278 | 0.344 | 0.536 | 0.251 | 0.235 | 0.173 | 0.177 | 0.959 | 0.717 | – | 0.726 | 0.866 |
| NCI-H2009 | 1.1 | 1.08 | 0.972 | 1 | 1.11 | 1.1 | 1.02 | 0.82 | 0.652 | 0.452 | 0.227 | 0.231 | 0.167 | 0.109 | 1.23 | 1.18 | 1.1 | 1.18 | 1.27 |
| NCI-H2347 | 1.01 | 1.06 | 0.759 | 1.03 | 1.11 | 0.928 | 0.834 | 0.49 | 0.448 | 0.706 | 0.524 | 0.457 | 0.391 | 0.376 | 1.22 | 1.05 | 0.938 | 1.04 | 1.17 |
